Earlier results, collected in patent publication US20090062317A1, “MEDICINAL USE OF RECEPTOR LIGANDS” (7TM PHARMA A/S, priority 2004, published 2009).

Test system: rats
Settings: literature reports

Compound	food intake induced by i.c.v.-injected MCH
CN(C)CC1CCc2cc(NC(=O)c3ccc(-c4ccc(F)cc4)cc3)ccc2C1 (centres unmarked) [Example T-226296]	suppress food intake
COCC1=C(C(=O)OC)[C@H](c2ccc(F)c(F)c2)N(C(=O)NCCCN2CCC(c3cccc(NC(C)=O)c3)CC2)C(=O)N1 [SNAP-7941]	suppress food intake
